Results from ChEMBL document CHEMBL6103543, “Exploring the rhodanine universe: Design and synthesis of fluorescent rhodanine-based derivatives as anti-fibrillar and anti-oligomer agents against α-synuclein and 2N4R tau” (Bioorg Med Chem, 2024).
Calls of active or inactive are those of the source. No cut-off for these calls is given here.

Legend:
Alpha-synuclein [1] = biological target: T1, Alpha-synuclein (Homo sapiens, UniProt P37840); assay: Inhibition of recombinant alpha-synuclein (unknown origin) fibril formation assessed as thioflavin T fluorescence intensity at 100 uM measured every 20 mins by Thioflavin T fluorescence assay (reference value: 100 %)
Alpha-synuclein [2] = biological target: T1, Alpha-synuclein; assay: Inhibition of recombinant alpha-synuclein (unknown origin) fibril formation assessed as decrease in thioflavin T fluorescence intensity measured every 20 mins by Thioflavin T fluorescence assay
Alpha-synuclein [3] = biological target: T1, Alpha-synuclein; assay: Inhibition of alpha-synuclein (unknown origin) oligomer formation assessed as reduction in cross linking at 100 uM preincubated with compound followed by Ru(BPY3) addition and measured after 1 sec light irradiation by coomassie blue staining based PICUP assay
Alpha-synuclein [4] = biological target: T1, Alpha-synuclein; assay: Inhibition of alpha-synuclein (unknown origin) oligomer formation assessed as reduction in cross linking preincubated with compound followed by Ru(BPY3) addition and measured after 1 sec light irradiation by coomassie blue staining based PICUP assay; conditions: dose 50-200 µM
[5] = biological target: Microtubule-associated protein tau (Homo sapiens) (UniProt P10636); assay: Inhibition of Tau 0N4R (unknown origin) oligomer formation assessed as reduction in cross linking at 50 uM preincubated with compound followed by Ru(BPY3) addition and measured after 15 sec light irradiation by coomassie blue staining based PICUP assay relative to control
Sequence of Microtubule-associated protein tau (Homo sapiens) (P10636 whole entry): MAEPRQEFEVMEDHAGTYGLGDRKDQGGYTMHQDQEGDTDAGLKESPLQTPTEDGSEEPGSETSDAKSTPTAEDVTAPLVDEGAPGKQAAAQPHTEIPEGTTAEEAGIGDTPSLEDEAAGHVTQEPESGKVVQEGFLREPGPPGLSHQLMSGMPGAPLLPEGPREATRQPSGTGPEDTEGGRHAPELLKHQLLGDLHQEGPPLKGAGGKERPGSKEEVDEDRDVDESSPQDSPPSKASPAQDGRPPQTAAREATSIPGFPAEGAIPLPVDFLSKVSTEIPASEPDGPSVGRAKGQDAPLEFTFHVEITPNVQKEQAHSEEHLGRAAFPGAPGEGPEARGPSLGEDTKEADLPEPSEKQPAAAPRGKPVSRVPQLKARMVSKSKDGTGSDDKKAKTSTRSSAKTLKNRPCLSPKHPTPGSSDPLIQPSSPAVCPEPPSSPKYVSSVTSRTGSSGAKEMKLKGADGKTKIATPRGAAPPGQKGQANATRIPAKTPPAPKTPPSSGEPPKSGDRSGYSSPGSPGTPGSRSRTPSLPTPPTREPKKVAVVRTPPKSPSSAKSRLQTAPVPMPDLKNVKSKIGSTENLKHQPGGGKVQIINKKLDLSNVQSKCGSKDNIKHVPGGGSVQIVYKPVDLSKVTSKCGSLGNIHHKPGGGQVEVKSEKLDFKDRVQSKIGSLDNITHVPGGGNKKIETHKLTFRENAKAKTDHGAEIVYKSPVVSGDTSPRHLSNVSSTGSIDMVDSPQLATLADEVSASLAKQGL

[6] = biological target: Microtubule-associated protein tau (Homo sapiens) (UniProt P10636); assay: Inhibition of Tau 0N4R (unknown origin) oligomer formation assessed as reduction in cross linking at 100 uM preincubated with compound followed by Ru(BPY3) addition and measured after 15 sec light irradiation by coomassie blue staining based PICUP assay relative to control
[7] = biological target: Microtubule-associated protein tau (Homo sapiens) (UniProt P10636); assay: Inhibition of Tau 0N4R (unknown origin) oligomer formation assessed as reduction in cross linking at 200 uM preincubated with compound followed by Ru(BPY3) addition and measured after 15 sec light irradiation by coomassie blue staining based PICUP assay relative to control
[8] = biological target: Microtubule-associated protein tau (Homo sapiens) (UniProt P10636); assay: Inhibition of Tau 0N4R (unknown origin) oligomer formation assessed as reduction in cross linking at 300 uM preincubated with compound followed by Ru(BPY3) addition and measured after 15 sec light irradiation by coomassie blue staining based PICUP assay relative to control
Alpha-synuclein [9] = biological target: T1, Alpha-synuclein; assay: Inhibition of alpha-synuclein (unknown origin) oligomer formation at 100 uM incubated for 3 days by Western blot analysis; conditions: time 3.0 day
[10] = biological target: Microtubule-associated protein tau (Homo sapiens) (UniProt P10636); assay: Binding affinity to recombinant human 2N4R fibril extracted from Escherichia coli assessed as decrease in fluorescence intensity at 1 uM incubated for 60 mins by fluorescence spectrophotometric analysis
Alpha-synuclein [11] = biological target: T1, Alpha-synuclein; assay: Binding affinity to alpha-synuclein fibril (unknown origin) assessed as decrease in fluorescence intensity at 1 uM incubated for 60 mins by fluorescence spectrophotometric analysis
Alpha-synuclein [12] = biological target: T1, Alpha-synuclein; assay: Inhibition of recombinant alpha-synuclein (unknown origin) fibril formation assessed as decrease in aggregation at 100 uM incubated for 3 days by transmission electron microscopic analysis; conditions: time 3.0 day
[13] = biological target: Microtubule-associated protein tau (Homo sapiens) (UniProt P10636); assay: Inhibition of Tau 2N4R monomer (unknown origin) fibril formation assessed as decrease in aggregation at 100 uM incubated for 5 days by transmission electron microscopic analysis; conditions: time 5.0 day
[14] = biological target: Amyloid-beta precursor protein (Homo sapiens) (UniProt P05067); assay: Inhibition of HFIP-induced recombinant amyloid beta (1 to 42) (unknown origin) aggregation assessed as decrease in thioflavin T fluorescence intensity at 100 uM measured every 20 mins by Thioflavin T fluorescence assay
Sequence of Amyloid-beta precursor protein (Homo sapiens) (P05067 whole entry, the tested form may be a part): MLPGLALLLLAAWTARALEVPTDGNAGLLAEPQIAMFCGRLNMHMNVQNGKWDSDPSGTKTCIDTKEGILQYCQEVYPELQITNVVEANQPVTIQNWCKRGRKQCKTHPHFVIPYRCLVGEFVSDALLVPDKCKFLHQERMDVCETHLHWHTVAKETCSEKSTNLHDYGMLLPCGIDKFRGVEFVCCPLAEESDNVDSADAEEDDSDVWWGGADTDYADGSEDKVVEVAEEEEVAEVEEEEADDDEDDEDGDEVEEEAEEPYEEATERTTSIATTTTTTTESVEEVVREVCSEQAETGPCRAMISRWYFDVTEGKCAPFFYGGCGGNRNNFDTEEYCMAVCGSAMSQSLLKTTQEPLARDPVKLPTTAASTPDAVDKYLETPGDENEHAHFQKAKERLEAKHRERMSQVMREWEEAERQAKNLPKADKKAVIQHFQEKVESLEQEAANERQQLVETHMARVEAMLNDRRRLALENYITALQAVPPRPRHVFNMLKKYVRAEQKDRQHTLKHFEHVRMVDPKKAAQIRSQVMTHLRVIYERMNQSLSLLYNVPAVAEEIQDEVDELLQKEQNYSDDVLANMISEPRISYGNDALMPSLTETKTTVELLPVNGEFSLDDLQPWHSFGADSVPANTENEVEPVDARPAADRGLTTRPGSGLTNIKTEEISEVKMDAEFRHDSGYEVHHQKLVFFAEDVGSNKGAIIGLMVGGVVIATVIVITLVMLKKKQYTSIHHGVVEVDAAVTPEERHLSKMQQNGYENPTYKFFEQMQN

[15] = biological target: Amyloid-beta precursor protein (Homo sapiens) (UniProt P05067); assay: Inhibition of amyloid beta aggregation derived from alzhemier's disease patient brain assessed as reduction in plaques at 50 uM incubated for 5 days by transmission electron microscopic analysis; conditions: time 5.0 day
[16] = biological target: Amyloid-beta precursor protein (Homo sapiens) (UniProt P05067); assay: Inhibition of amyloid beta aggregation derived from alzhemier's disease patient brain assessed as reduction in plaque density at 50 uM incubated for 5 days by transmission electron microscopic analysis; conditions: time 5.0 day
Alpha-synuclein [17] = biological target: T1, Alpha-synuclein; assay: Inhibition of alpha-syn inclusion formation in human M17D cells expressing doxycyclin-inducible alpha-syn-S3K::YFP inclusion-prone fusion protein assessed as reduction in inclusions at 1.25 to 40 uM treated with compound starting from 24 hrs post plating followed by doxycyclin addition at 48 hrs and measured 96 hrs post plating by Incucyte-based analysis; format: cell-based; conditions: dose 1.25-40 µM, time 72.0 hrs
[18] = Cytotoxicity against human M17D cells expressing doxycyclin-inducible alpha-syn-S3K::YFP inclusion-prone fusion protein assessed as reduction in cell confluency at 1.25 to 40 uM treated with compound starting from 24 hrs post plating followed by doxycyclin addition at 48 hrs and measured 96 hrs post plating by Incucyte-based analysis; format: toxicity; conditions: 72 h, dose 1.25-40 µM
Alpha-synuclein [19] = biological target: T1, Alpha-synuclein; assay: Inhibition of alpha-syn inclusion formation in human M17D cells expressing doxycyclin-inducible alpha-syn-S3K::YFP inclusion-prone fusion protein assessed as reduction in inclusions at 5 uM treated with compound starting from 24 hrs post plating followed by doxycyclin addition at 48 hrs and measured 96 hrs post plating by Incucyte-based analysis; format: cell-based; conditions: time 72.0 hrs
[20] = Cytotoxicity against human M17D cells expressing doxycyclin-inducible alpha-syn-S3K::YFP inclusion-prone fusion protein assessed as reduction in cell confluency at 1.25 to 5 uM treated with compound starting from 24 hrs post plating followed by doxycyclin addition at 48 hrs and measured 96 hrs post plating by Incucyte-based analysis; format: toxicity; conditions: 72 h, dose 1.25-5 µM
[21] = biological target: Microtubule-associated protein tau (Mus musculus) (UniProt P10637); assay: Inhibition of Tau aggregation in mouse N2a cells at 15 uM incubated for 5 days by ThS staining based analysis relative to control; format: cell-based; conditions: time 5.0 day
Sequence of Microtubule-associated protein tau (Mus musculus) (P10637 whole entry): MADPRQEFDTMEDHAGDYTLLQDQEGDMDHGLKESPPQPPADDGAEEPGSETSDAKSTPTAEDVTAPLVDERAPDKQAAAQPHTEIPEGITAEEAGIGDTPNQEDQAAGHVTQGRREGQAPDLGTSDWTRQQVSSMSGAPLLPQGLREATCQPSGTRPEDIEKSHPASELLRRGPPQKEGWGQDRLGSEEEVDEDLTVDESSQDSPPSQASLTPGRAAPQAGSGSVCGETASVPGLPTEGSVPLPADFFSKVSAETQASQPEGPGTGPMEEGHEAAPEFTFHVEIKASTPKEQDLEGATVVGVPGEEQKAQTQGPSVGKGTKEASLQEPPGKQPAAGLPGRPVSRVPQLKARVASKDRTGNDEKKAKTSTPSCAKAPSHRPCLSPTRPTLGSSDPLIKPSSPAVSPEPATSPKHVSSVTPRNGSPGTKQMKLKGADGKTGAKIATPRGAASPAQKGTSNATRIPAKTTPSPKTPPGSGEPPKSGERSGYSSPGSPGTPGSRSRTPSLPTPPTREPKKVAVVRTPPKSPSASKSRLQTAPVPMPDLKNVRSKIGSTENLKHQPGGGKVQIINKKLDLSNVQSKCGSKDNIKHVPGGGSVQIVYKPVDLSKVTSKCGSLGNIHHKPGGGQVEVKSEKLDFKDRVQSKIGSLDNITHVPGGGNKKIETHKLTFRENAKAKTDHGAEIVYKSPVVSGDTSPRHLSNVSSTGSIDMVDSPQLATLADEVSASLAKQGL

[22] = biological target: Microtubule-associated protein tau (Homo sapiens) (UniProt P10636); assay: Inhibition of recombinant Tau 0N4R (unknown origin) aggregation assessed as decrease in fluorescence intensity at 100 uM measured every 5 mins by Thioflavin S fluorescence assay
[23] = biological target: Microtubule-associated protein tau (Homo sapiens) (UniProt P10636); assay: Inhibition of recombinant Tau 2N4R (unknown origin) aggregation assessed as decrease in fluorescence intensity at 100 uM measured every 5 mins by Thioflavin S fluorescence assay
[24] = biological target: Microtubule-associated protein tau (Homo sapiens) (UniProt P10636); assay: Inhibition of recombinant phosphorylated Tau 1N4R (unknown origin) aggregation assessed as decrease in fluorescence intensity at 100 uM measured every 5 mins by Thioflavin S fluorescence assay
Alpha-synuclein [25] = biological target: T1, Alpha-synuclein; assay: Inhibition of alpha-synuclein (unknown origin) oligomer formation assessed as reduction in cross linking at 50 uM preincubated with compound followed by Ru(BPY3) addition and measured after 1 sec light irradiation by coomassie blue staining based PICUP assay relative to control
Alpha-synuclein [26] = biological target: T1, Alpha-synuclein; assay: Inhibition of alpha-synuclein (unknown origin) oligomer formation assessed as reduction in cross linking at 100 uM preincubated with compound followed by Ru(BPY3) addition and measured after 1 sec light irradiation by coomassie blue staining based PICUP assay relative to control
[27] = biological target: Microtubule-associated protein tau (Homo sapiens) (UniProt P10636); assay: Binding affinity to recombinant human 2N4R fibril extracted from Escherichia coli assessed as fluorescence quenching at 1 uM incubated for 40 mins by fluorescence spectrophotometric analysis
Alpha-synuclein [28] = biological target: T1, Alpha-synuclein; assay: Binding affinity to alpha-synuclein fibril (unknown origin) assessed as hypsochromic shift at 1 uM incubated for 40 mins by fluorescence spectrophotometric analysis

Row | Compound | Flu intensity (Alpha-synuclein [1]) | inhibition (Alpha-synuclein [3]) | other results
1 | O=C(O)CCN1C(=O)/C(=C/c2c[nH]c3ccccc23)SC1=S | 1.9% | Active | EC50 (Alpha-synuclein [2]): 13.1 µM; inhibition (Alpha-synuclein [4]): Dose-dependent-effect; inhibition [5]: 13%; inhibition [6]: 13%; inhibition [7]: 25%; inhibition [8]: 78%; inhibition (Alpha-synuclein [9]): Active; Activity [10]: Active; Bathochromic Shift Of 10 Nm Observed; Activity (Alpha-synuclein [11]): Active; Bathochromic Shift Of 10 Nm Observed; inhibition (Alpha-synuclein [12]): Active; inhibition [13]: Active; inhibition [14]: Active; inhibition [15]: Active; inhibition [16]: Active; inhibition (Alpha-synuclein [17]): inactive; Activity [18]: Non-toxic
2 | O=C(O)CCN1C(=O)/C(=C/c2ccc3ccccc3n2)SC1=S | 25% | inactive | 
3 | O=C(O)CCN1C(=O)/C(=C/c2coc3ccccc23)SC1=S | 31.8% | inactive | 
4 | O=C(O)CCN1C(=O)/C(=C/c2csc3ccccc23)SC1=S | -0.05% | inactive | 
5 | O=C(O)c1ccc(N2C(=O)/C(=C/c3c[nH]c4ccccc34)SC2=S)cc1O | 8.9% | inactive | inhibition (Alpha-synuclein [12]): Active; Moderate Effect Observed; inhibition [13]: Active; Moderate Effect Observed; inhibition (Alpha-synuclein [19]): Active; Activity [20]: Non-toxic
6 | O=C1/C(=C/c2ccc(-c3cccc(Cl)c3)o2)SC(=S)N1Cc1nc2ccccc2[nH]1 |  |  | inhibition [21]: 70%
7 | O=C(O)CN1C(=O)/C(=C/c2cn(CCO)c3ccccc23)SC1=S | 27% | Active | 
8 | O=C(O)CCN1C(=O)/C(=C/c2cc3ccccc3[nH]2)SC1=S | 0.5% | Active | 
9 | O=C(O)c1ccc(N2C(=O)/C(=C/c3coc4ccccc34)SC2=S)cc1 | 15.3% | inactive | 
10 | O=C(O)CN1C(=O)/C(=C/c2nc3ccccc3s2)SC1=S | 0.8% | inactive | inhibition (Alpha-synuclein [12]): Active; Powerful Inhibition Observed
11 | O=C(O)c1ccc(N2C(=O)/C(=C/c3nc4ccccc4s3)SC2=S)cc1 | 31.8% | inactive | 
12 | O=C(O)CN1C(=O)/C(=C/c2cccc3cc[nH]c23)SC1=S | 15.1% | Active; Weak Inhibition Observed | 
13 | O=C(O)c1ccc(N2C(=O)/C(=C/c3ccc4ccccc4n3)SC2=S)cc1 | 84.3% | inactive | 
14 | O=C(O)CN1C(=O)/C(=C/c2cc3ccccc3[nH]2)SC1=S | 0.1% | Active | 
15 | O=C(O)c1ccc(N2C(=O)/C(=C/c3coc4ccccc34)SC2=S)cc1O | 29.1% | inactive | 
16 | O=C(O)c1ccc(N2C(=O)/C(=C/c3c[nH]c4ccccc34)SC2=S)cc1 | 14.9% | Active | inhibition (Alpha-synuclein [4]): Dose-dependent-effect
17 | O=C(O)CN1C(=O)/C(=C/c2c[nH]c3ccccc23)SC1=S | 10.1% | Active | inhibition (Alpha-synuclein [4]): Dose-dependent-effect
18 | O=C(O)CCN1C(=O)/C(=C/c2nc3ccccc3s2)SC1=S | 12.1% | inactive | inhibition (Alpha-synuclein [12]): Active; Powerful Inhibition Observed
19 | O=C(O)CN1C(=O)/C(=C/c2csc3ccccc23)SC1=S | 3.2% | inactive | 
20 | O=C(O)c1ccc(N2C(=O)/C(=C/c3csc4ccccc34)SC2=S)cc1 | 70.4% | inactive | 
21 | COc1ccc2c(/C=C3\SC(=S)N(CCC(=O)O)C3=O)c[nH]c2c1 | > 100% | inactive | 
22 | O=C(O)c1ccc(N2C(=O)/C(=C/c3csc4ccccc34)SC2=S)cc1O | 56.7% | inactive | 
23 | O=C(O)CN1C(=O)/C(=C/c2ccc3ccccc3n2)SC1=S | 5.4% | inactive | 
24 | O=C(O)CCN1C(=O)/C(=C/c2cccc3cc[nH]c23)SC1=S | 14.7% | Active; Weak Inhibition Observed | 
25 | O=C(O)c1ccc(N2C(=O)/C(=C/c3nc4ccccc4s3)SC2=S)cc1O | 25% | inactive | 
26 | O=C(O)CN1C(=O)/C(=C/c2coc3ccccc23)SC1=S | 24.7% | inactive | 
27 | COc1ccc2c(/C=C3\SC(=S)N(CC(=O)O)C3=O)c[nH]c2c1 | 1.9% | Active | EC50 (Alpha-synuclein [2]): 8.66 µM; inhibition [22]: Active; inhibition [23]: Active; inhibition [24]: Active; inhibition (Alpha-synuclein [4]): Dose-dependent-effect; inhibition (Alpha-synuclein [25]): 81%; inhibition (Alpha-synuclein [26]): 100%; inhibition [5]: 18%; inhibition [6]: 50%; inhibition [7]: 70%; inhibition [8]: 92%; inhibition (Alpha-synuclein [9]): Active; Activity [27]: Active; Activity (Alpha-synuclein [28]): Active; Slight Hypsochromic Shift Observed Without Any Effect On Fluorescence Intensity; inhibition [14]: Active; inhibition [15]: Active; inhibition (Alpha-synuclein [17]): inactive; Activity [18]: Non-toxic
